The values that follow are results of earlier work, collected in US20170119788A1, “METHODS AND COMPOSITIONS FOR DERMATOLOGICAL USE COMPRISING FLUTICASONE AND MOMETASONE AND BIOPOLYMERS” (APEX LABORATORIES PRIVATE LIMITED, priority 2015, published 2017).

The target of data set [1] is T1, human glucocorticoid receptors (Homo sapiens, UniProt P04150).
T1 sequence (P04150 1-777): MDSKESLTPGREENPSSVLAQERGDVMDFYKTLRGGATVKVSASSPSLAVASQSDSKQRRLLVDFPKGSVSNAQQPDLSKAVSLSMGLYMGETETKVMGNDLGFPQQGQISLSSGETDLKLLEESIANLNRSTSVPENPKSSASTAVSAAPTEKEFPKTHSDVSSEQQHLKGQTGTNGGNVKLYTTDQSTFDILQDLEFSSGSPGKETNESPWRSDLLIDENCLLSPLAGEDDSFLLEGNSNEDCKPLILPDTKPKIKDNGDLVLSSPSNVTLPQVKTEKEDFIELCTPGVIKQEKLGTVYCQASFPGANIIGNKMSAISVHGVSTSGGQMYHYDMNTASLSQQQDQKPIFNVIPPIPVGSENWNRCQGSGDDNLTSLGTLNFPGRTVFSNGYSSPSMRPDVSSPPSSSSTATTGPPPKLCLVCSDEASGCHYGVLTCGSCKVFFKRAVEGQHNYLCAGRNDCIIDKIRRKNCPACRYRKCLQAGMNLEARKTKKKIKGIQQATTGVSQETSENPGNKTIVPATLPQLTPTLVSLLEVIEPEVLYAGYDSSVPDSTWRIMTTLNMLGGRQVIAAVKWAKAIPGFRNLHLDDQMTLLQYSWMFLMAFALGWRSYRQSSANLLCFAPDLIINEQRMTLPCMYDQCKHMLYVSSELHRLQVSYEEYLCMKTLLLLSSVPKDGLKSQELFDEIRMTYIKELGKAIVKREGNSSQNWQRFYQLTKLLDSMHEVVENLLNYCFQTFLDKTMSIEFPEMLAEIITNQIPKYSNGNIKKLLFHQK
The settings on record: in vitro, result in words.

Another data set relates to human plasma proteins. The settings on record: average.
The subject of another data set is erythrocytes. To be noted: result in words.
Another data set has as its target T2, human transcortin (Homo sapiens, UniProt P08185).
T2 sequence (P08185 23-405): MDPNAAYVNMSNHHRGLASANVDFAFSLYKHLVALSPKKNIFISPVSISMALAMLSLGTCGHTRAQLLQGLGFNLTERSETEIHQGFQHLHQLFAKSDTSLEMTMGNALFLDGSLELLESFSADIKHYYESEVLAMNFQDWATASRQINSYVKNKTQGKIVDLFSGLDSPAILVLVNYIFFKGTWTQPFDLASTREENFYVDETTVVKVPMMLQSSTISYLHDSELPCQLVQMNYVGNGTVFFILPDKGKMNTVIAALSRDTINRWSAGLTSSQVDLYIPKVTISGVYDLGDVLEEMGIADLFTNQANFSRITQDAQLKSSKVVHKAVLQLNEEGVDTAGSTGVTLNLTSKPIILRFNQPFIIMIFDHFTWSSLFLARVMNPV
To be noted: result in words.

Test in data set [2]: not given
This is another data set of the same source.

Test in data set [3]: not given
The source holds these as a separate data set.

Test in data set [4]: not given
This is another data set of the same source.

Like-named read-outs stand apart in the source and are kept apart here.

`CCC(=O)O[C@]1(C(=O)SCF)[C@H](C)C[C@H]2[C@@H]3C[C@H](F)C4=CC(=O)C=C[C@]4(C)[C@@]3(F)[C@@H](O)C[C@@]21C` [Fluticasone propionate, S-(fluoromethyl)6α,9-difluoro-11β-17-dihydroxy-16α-methyl-3-oxoandrosta-1,4-diene-17β-carbothioate, 17-propionate]: the “apparent volume of distribution, average” value was 4.2 L/kg and the “terminal half-life, average” value is 7.2 h. Also, in data set [1], the “affinity and agonist activity at human glucocorticoid receptors” value is “strong affinity and agonist activity”. Further, the “percentage bound to human plasma proteins” value in the data set with human plasma proteins is listed as 91%. The binding to erythrocytes entry in the data set with erythrocytes is “weakly and reversibly bound”. On human transcortin, the “binding to human transcortin” value was “not significantly bound”. Further, the “solubility in dimethyl sulfoxide and dimethylformamide” value in data set [2] (dimethyl sulfoxide and dimethylformamide) is “freely soluble”. In addition, in data set [2] (methanol and 95% ethanol), the “solubility in methanol and 95% ethanol” value is listed as “slightly soluble”. Also, in data set [2] (water), the solubility in water entry is “practically insoluble”.
Regarding `C[C@@H]1C[C@H]2[C@@H]3CCC4=CC(=O)C=C[C@]4(C)[C@@]3(Cl)[C@@H](O)C[C@]2(C)[C@@]1(OC(=O)c1ccco1)C(=O)CCl` [Mometasone Furoate, 9α, 21-dichloro-11β, 17-dihydroxy-16α-methylpregna-1,4-diene-3, 20-dione 17-(2-Furoate)], the “solubility in ethyl alcohol” value in data set [3] (ethyl alcohol) is recorded as “moderately soluble”. In data set [3] (octanol), the solubility in octanol entry is “slightly soluble”. The solubility in water result in data set [3] (water) was “practically insoluble”. In addition, the “bioavailability of an inhaled dose” value in data set [4] (compared with IV administration) is recorded as “less than 1%”. Also, in data set [4] (up to 7 days), the “excretion in the feces” value is 74% and the “excretion in the urine” value is reported as 8%.
